# Data: patent US7993756B2, “Long-chain quaternary ammonium compounds as wood treatment agents” (Viance, LLC, priority 2005, dated 2011)
# How the values were obtained:
# Postia placenta = assay: Standard soil-block decay test (AWPA Standard Test Method E-10); type: cell-based; details: 2HT at 0.8% in the treating solution
# Source text: The vertical axis is percent weight loss of the wood blocks (negative numbers represent weight gain), and the horizontal axis is ACQ® wood preservative retention in the wood blocks expressed on a weight preservative/weight wood basis. […] The toxic threshold of ACQ® wood preservative against Postia placenta is estimated to be 0.7-0.8% in this test (FIG. 4).
# [1] = test system: soil-bed decay of Southern Pine Mini-Stakes; assay: Accelerated Soil-bed Decay Test of Southern Pine Mini-Stakes (AWPA Standard Test Method E14); details: addition of 0.8% 2HT; all three retention levels; after about 10 years exposure
# Source text: A decay rating of 100 means no decay, and a rating of 0 indicates failure due to decay.
substance,measurement,setting,value
dimethyl di(hydrogenated tallow) ammonium compound [2HT],effect on toxicity of ACQ wood preservative toward Postia placenta,Postia placenta,almost double
same,effect on performance of ACQ wood preservative in soil-bed decay test,[1],improves the performance
